In patent EP4640240A1, “PEPTIDE-BASED RADIOPHARMACEUTICALS FOR NON-INVASIVE IMAGING OF THE FUNCTIONAL LIVER RESERVE” (Medizinische Universität Innsbruck, priority 2024, dated 2025):
Like-named read-outs stand apart in the source and are kept apart here.

Legend:
[1] = Stability in human blood serum (radio-HPLC); format: in vitro ADME; conditions: 37 °C
Description: Ligand stability in human blood serum (n = 2) and PBS (pH = 6.5) (n = 1) was determined for different time points (2 min, 30 min, 60 min, 120 min). Therefore, approx. 5 MBq of radioligand was added to 1 mL of fresh human serum at 37 °C or PBS at rt. At each given time point 100 µL of the mixture were transferred to a 1.5 mL Eppendorf tube containing 100 µL of acetonitrile. The vial was vortexed and centrifuged for 2 min at 14,000 1/min before 100 µL of the supernatant were diluted with 200 µL of water and injected into analytical radio-HPLC. The PBS solution was directly injected into the radio-HPLC. Ligand stability was determined by integrating the areas of the signals in the radio chromatogram in relation to the signal of the intact ligand.

[2] = Protein binding in human serum (MicroSpin G-50 columns); format: in vitro ADME; conditions: fresh human serum, 37 °C, n=3
Description: Protein binding was determined for different time points (2 min, 30 min, 60 min, 120 min) in triplicates using Sephadex MicroSpin G-50 columns (GE-Healthcare, Chicago, Illinois, USA). The columns were spun initially at 20,000 rcf for 1 min to remove the storage buffer. Then approx. 5 MBq of radioligand was added to 1 mL of fresh human serum and incubated at 37 °C. At each given timepoint 25 µL of the mixture was loaded on to the column, which was then spun at 20,000 rcf for 1 min. The activity content on the column (free radioligand) and in the filtrate (protein bound fraction) was quantified in a γ-counter.

[3] = Partition coefficient logD (n-octanol/PBS); format: physicochemical; conditions: n=6
Description: For determination of logarithmic partition coefficients (logD) n-Octanol (500 µL) and PBS (500 µL) were pipetted into eight 1.5 mL Protein Low-Bind Eppendorf tubes followed by addition of 300 kBq of labelled compound. The vials were vortexed for 5 min at 1,500 1/min and then centrifuged for 5 min at 20,000 rcf (Eppendorf Centrifuge 5424). Aliquots of 100 µL were taken out of each phase and the amount of activity was quantified in a γ-counter (Perkin Elmer 2480 Wizard2 3"; Waltham, Massachusetts, USA).

[4] = Biodistribution studies in BALB/c mice; format: in vivo; conditions: female, mouse, iv, total radioactivity, healthy BALB/c mice, 0.1 nmol i.v.; for tissue uptake at 10 min: 10 min p.i.; for tissue uptake at 0.5 h: 30 min p.i.; for tissue uptake at 1 h: 60 min p.i.
Description: For biodistribution studies 6-week-old female BALB/c mice (n=3) were injected with 0.1 nmol (100 µL, approx. 1 MBq) of labelled compound via the lateral tail vein and sacrificed after 10, 30, or 60 min by cervical dislocation. The mice were dissected, blood and organs (spleen, pancreas, stomach, intestine, liver, kidney, heart, lung, muscle and bone) were weighed and their activity measured in a γ-counter. For blocking experiments, mice were co-injected with 27.7 µmοl N-acetylgalactose.

[5] = Blood, read-out: Biodistribution data, Blood
[6] = Femur, read-out: Biodistribution data, Femur
[7] = Heart, read-out: Biodistribution data, Heart
[8] = Intestine, read-out: Biodistribution data, Intestine
[9] = Kidneys, read-out: Biodistribution data, Kidneys
[10] = Liver, read-out: Biodistribution data, Liver
[11] = Lung, read-out: Biodistribution data, Lung
[12] = Muscle, read-out: Biodistribution data, Muscle
[13] = Pancreas, read-out: Biodistribution data, Pancreas
[14] = Spleen, read-out: Biodistribution data, Spleen
[15] = Stomach, read-out: Biodistribution data, Stomach

In the case of `NC(=O)CNC(=O)CNC(=O)[C@H](CCCCNC(=O)CCCCc1cn(C2O[C@H](CO)[C@H](O)[C@H](O)[C@H]2O)nn1)NC(=O)CNC(=O)CNC(=O)[C@H](CCCCNC(=O)CCCCc1cn(C2O[C@H](CO)[C@H](O)[C@H](O)[C@H]2O)nn1)NC(=O)CNC(=O)CNC(=O)[C@H](CCCCNC(=O)CCCCc1cn(C2O[C@H](CO)[C@H](O)[C@H](O)[C@H]2O)nn1)NC(=O)CNC(=O)CNC(=O)[C@H](CCCCNC(=O)CCCCc1cn(C2O[C@H](CO)[C@H](O)[C@H](O)[C@H]2O)nn1)NC(=O)CNC(=O)CNC(=O)[C@H](CCCCNC(=O)CCCCc1cn(C2O[C@H](CO)[C@H](O)[C@H](O)[C@H]2O)nn1)NC(=O)CNC(=O)CNC(=O)[C@H](CCCCNC(=O)CCCCc1cn(C2O[C@H](CO)[C@H](O)[C@H](O)[C@H]2O)nn1)NC(=O)CCCNC(=O)CC[C@H](C(=O)O)N1CCN(CC(=O)O)CCN(CC(=O)O)CC1` (stereo partly drawn) [[68Ga]Ga-HexaLysan, metal not drawn], the remaining at 2 min ([1]; 2 min, n=2, read-out: Serum stability (% of intact ligand)) is reported as 99.4 ± 0.2%, the “Serum stability (% of intact ligand)” value ([1]; 30 min, n=2) is reported as 99.7 ± 0.1% and the remaining at 1 h ([1]; 60 min, n=2, read-out: Serum stability (% of intact ligand)) is reported as 99.9 ± 0.1%. The remaining at 2 h ([1]; 120 min, n=2, read-out: Serum stability (% of intact ligand)) was 99.9 ± 0.1%, the fraction unbound ([2]; 2 min) was 0.824 and the fraction unbound ([2]; 30 min) was 0.782. The fraction unbound ([2]; 60 min) was 0.82, the fraction unbound at 120 min, 5 MBq/mL ([2]; 120 min) was 0.748 and the logD [3] was -4.34 ± 0.13. It also gave a tissue uptake at 10 min [4, 5] of 2.1 ± 0.04 %ID/g, a tissue uptake at 0.5 h [4, 5] of 0.63 ± 0.07 %ID/g and a tissue uptake at 1 h [4, 5] of 1.05 ± 0.41 %ID/g. The tissue uptake at 10 min [4, 6] was 0.48 ± 0.06 %ID/g, the tissue uptake at 0.5 h [4, 6] was 0.33 ± 0.03 %ID/g and the tissue uptake at 1 h [4, 6] was 0.002 ± 0.001 %ID/g. For the same molecule, the tissue uptake at 10 min [4, 7] was 0.94 ± 0.05 %ID/g, the tissue uptake at 0.5 h [4, 7] was 0.37 ± 0.09 %ID/g and the tissue uptake at 1 h [4, 7] was 0.25 ± 0.02 %ID/g. It also gave a tissue uptake at 10 min [4, 8] of 1.19 ± 0.25 %ID/g, a tissue uptake at 0.5 h [4, 8] of 3.97 ± 0.28 %ID/g and a tissue uptake at 1 h [4, 8] of 5.94 ± 1.67 %ID/g. The tissue uptake at 10 min [4, 9] was 4.83 ± 0.3 %ID/g, the tissue uptake at 0.5 h [4, 9] was 1.94 ± 0.22 %ID/g and the tissue uptake at 1 h [4, 9] was 1.34 ± 0.34 %ID/g. For the same molecule, the tissue uptake at 10 min [4, 10] was 54.8 ± 3.02 %ID/g, the tissue uptake at 0.5 h [4, 10] was 55.5 ± 7.37 %ID/g and the tissue uptake at 1 h [4, 10] was 45.9 ± 11.8 %ID/g. It also gave a tissue uptake at 10 min [4, 11] of 1.61 ± 0.16 %ID/g, a tissue uptake at 0.5 h [4, 11] of 0.77 ± 0.11 %ID/g and a tissue uptake at 1 h [4, 11] of 0.62 ± 0.19 %ID/g. For the same molecule, the tissue uptake at 10 min [4, 12] was 0.93 ± 0.12 %ID/g, the tissue uptake at 0.5 h [4, 12] was 0.57 ± 0.03 %ID/g and the tissue uptake at 1 h [4, 12] was 0.41 ± 0.04 %ID/g. For the same molecule, the tissue uptake at 10 min [4, 13] was 0.91 ± 0.05 %ID/g, the tissue uptake at 0.5 h [4, 13] was 0.69 ± 0.12 %ID/g and the tissue uptake at 1 h [4, 13] was 0.48 ± 0.13 %ID/g. It also gave a tissue uptake at 10 min [4, 14] of 0.5 ± 0.07 %ID/g, a tissue uptake at 0.5 h [4, 14] of 0.21 ± 0.06 %ID/g and a tissue uptake at 1 h [4, 14] of 0.17 ± 0.02 %ID/g. It also gave a tissue uptake at 10 min [4, 15] of 1.29 ± 0.28 %ID/g, a tissue uptake at 0.5 h [4, 15] of 1.19 ± 0.28 %ID/g and a tissue uptake at 1 h [4, 15] of 0.4 ± 0.14 %ID/g.
